# According to PubChem BioAssay (NCI):
#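 GI50 = concentration required for 50% inhibition of growth. The concentration for full growth arrest is given as TGI.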
# Assays:
# Assay in all cases: inhibition of tumour cell growth, NCI panel, 384-well format
# 786-0 renal = tested on: 786-0 renal
# A498 renal = tested on: A498 renal
# A549 NSCLC = tested on: A549 NSCLC
# ACHN renal = tested on: ACHN renal
# BT-549 breast = tested on: BT-549 breast
# CAKI-1 renal = tested on: CAKI-1 renal
# CCRF-CEM leukemia = tested on: CCRF-CEM leukemia
# COLO 205 colon = tested on: COLO 205 colon
# DU-145 prostate = tested on: DU-145 prostate
# EKVX NSCLC = tested on: EKVX NSCLC
# HCT-116 colon = tested on: HCT-116 colon
# HCT-15 colon = tested on: HCT-15 colon
# HL-60(TB) leukemia = tested on: HL-60(TB) leukemia
# HOP-62 NSCLC = tested on: HOP-62 NSCLC
# HOP-92 NSCLC = tested on: HOP-92 NSCLC
# HS 578T breast = tested on: HS 578T breast
# HT29 colon = tested on: HT29 colon
# IGROV1 ovarian = tested on: IGROV1 ovarian
# K-562 leukemia = tested on: K-562 leukemia
# KM12 colon = tested on: KM12 colon
# LOX IMVI melanoma = tested on: LOX IMVI melanoma
# M14 melanoma = tested on: M14 melanoma
# MALME-3M melanoma = tested on: MALME-3M melanoma
# MCF7 breast = tested on: MCF7 breast
# MDA-MB-231 breast = tested on: MDA-MB-231 breast
# MDA-MB-435 melanoma = tested on: MDA-MB-435 melanoma
# MDA-MB-468 breast = tested on: MDA-MB-468 breast
# MOLT-4 leukemia = tested on: MOLT-4 leukemia
# NCI-H226 lung = tested on: NCI-H226 lung
# NCI-H23 lung = tested on: NCI-H23 lung
# NCI-H322M lung = tested on: NCI-H322M lung
# NCI-H460 NSCLC = tested on: NCI-H460 NSCLC
# NCI-H522 lung = tested on: NCI-H522 lung
# NCI/ADR-RES ovarian = tested on: NCI/ADR-RES ovarian
# OVCAR-3 ovarian = tested on: OVCAR-3 ovarian
# OVCAR-4 ovarian = tested on: OVCAR-4 ovarian
# OVCAR-5 ovarian = tested on: OVCAR-5 ovarian
# PC-3 prostate = tested on: PC-3 prostate
# RPMI-8226 leukemia = tested on: RPMI-8226 leukemia
# RXF 393 renal = tested on: RXF 393 renal
# SF-268 CNS = tested on: SF-268 CNS
# SF-295 CNS = tested on: SF-295 CNS
# SF-539 CNS = tested on: SF-539 CNS
# SK-MEL-2 melanoma = tested on: SK-MEL-2 melanoma
# SK-MEL-28 melanoma = tested on: SK-MEL-28 melanoma
# SK-MEL-5 melanoma = tested on: SK-MEL-5 melanoma
# SK-OV-3 ovarian = tested on: SK-OV-3 ovarian
# SN12C renal = tested on: SN12C renal
# SNB-19 CNS = tested on: SNB-19 CNS
# SNB-75 CNS = tested on: SNB-75 CNS
# SR leukemia = tested on: SR leukemia
# SW-620 colon = tested on: SW-620 colon
# T-47D breast = tested on: T-47D breast
# TK-10 renal = tested on: TK-10 renal
# U251 glioblastoma = tested on: U251 glioblastoma
# UACC-257 melanoma = tested on: UACC-257 melanoma
# UACC-62 melanoma = tested on: UACC-62 melanoma
# UO-31 renal = tested on: UO-31 renal
smiles,measurement,setting,value
NC(=O)c1ccc2nc(-c3ccc(Oc4ccc(Cl)cc4)cc3)[nH]c2c1,GI50,786-0 renal,15 µM
same,TGI,786-0 renal,37.1 µM
same,GI50,A498 renal,16.1 µM
same,TGI,A498 renal,31.6 µM
same,GI50,A549 NSCLC,20.2 µM
same,TGI,A549 NSCLC,> 100 µM
same,GI50,ACHN renal,17.4 µM
same,TGI,ACHN renal,45.1 µM
same,GI50,BT-549 breast,13.6 µM
same,TGI,BT-549 breast,30.7 µM
same,GI50,CAKI-1 renal,25.1 µM
same,TGI,CAKI-1 renal,> 100 µM
same,GI50,CCRF-CEM leukemia,15.3 µM
same,TGI,CCRF-CEM leukemia,29.7 µM
same,GI50,COLO 205 colon,33.8 µM
same,TGI,COLO 205 colon,97.8 µM
same,GI50,DU-145 prostate,15 µM
same,TGI,DU-145 prostate,36.9 µM
same,GI50,EKVX NSCLC,21.7 µM
same,TGI,EKVX NSCLC,68.4 µM
same,GI50,HCT-116 colon,16.8 µM
same,TGI,HCT-116 colon,40.8 µM
same,GI50,HCT-15 colon,16.9 µM
same,TGI,HCT-15 colon,34.4 µM
same,GI50,HL-60(TB) leukemia,15 µM
same,TGI,HL-60(TB) leukemia,28.4 µM
same,GI50,HOP-62 NSCLC,13.6 µM
same,TGI,HOP-62 NSCLC,33.9 µM
same,GI50,HOP-92 NSCLC,20 µM
same,TGI,HOP-92 NSCLC,80.3 µM
same,GI50,HS 578T breast,13.4 µM
same,TGI,HS 578T breast,30.7 µM
same,GI50,HT29 colon,10.5 µM
same,TGI,HT29 colon,24.1 µM
same,GI50,IGROV1 ovarian,17.1 µM
same,TGI,IGROV1 ovarian,53.2 µM
same,GI50,K-562 leukemia,7.87 µM
same,TGI,K-562 leukemia,23.4 µM
same,GI50,KM12 colon,14.5 µM
same,TGI,KM12 colon,31.3 µM
same,GI50,LOX IMVI melanoma,26.2 µM
same,TGI,LOX IMVI melanoma,60.7 µM
same,GI50,M14 melanoma,20.2 µM
same,TGI,M14 melanoma,50.3 µM
same,GI50,MALME-3M melanoma,17.1 µM
same,TGI,MALME-3M melanoma,46.2 µM
same,GI50,MCF7 breast,12.1 µM
same,TGI,MCF7 breast,27.1 µM
same,GI50,MDA-MB-231 breast,21.5 µM
same,TGI,MDA-MB-231 breast,46.1 µM
same,GI50,MDA-MB-435 melanoma,23.2 µM
same,TGI,MDA-MB-435 melanoma,68 µM
same,GI50,MDA-MB-468 breast,13.7 µM
same,TGI,MDA-MB-468 breast,34.5 µM
same,GI50,MOLT-4 leukemia,12.9 µM
same,TGI,MOLT-4 leukemia,25.8 µM
same,GI50,NCI-H226 lung,22 µM
same,TGI,NCI-H226 lung,78.1 µM
same,GI50,NCI-H23 lung,20.1 µM
same,TGI,NCI-H23 lung,76 µM
same,GI50,NCI-H322M lung,15.3 µM
same,TGI,NCI-H322M lung,38.6 µM
same,GI50,NCI-H460 NSCLC,14.8 µM
same,TGI,NCI-H460 NSCLC,29.1 µM
same,GI50,NCI-H522 lung,14.9 µM
same,TGI,NCI-H522 lung,46.2 µM
same,GI50,NCI/ADR-RES ovarian,23.5 µM
same,TGI,NCI/ADR-RES ovarian,74.7 µM
same,GI50,OVCAR-3 ovarian,12.1 µM
same,TGI,OVCAR-3 ovarian,25.4 µM
same,GI50,OVCAR-4 ovarian,11.4 µM
same,TGI,OVCAR-4 ovarian,37.1 µM
same,GI50,OVCAR-5 ovarian,23.6 µM
same,TGI,OVCAR-5 ovarian,> 100 µM
same,GI50,PC-3 prostate,16 µM
same,TGI,PC-3 prostate,34.6 µM
same,GI50,RPMI-8226 leukemia,15.2 µM
same,TGI,RPMI-8226 leukemia,29.1 µM
same,GI50,RXF 393 renal,10.6 µM
same,TGI,RXF 393 renal,27.7 µM
same,GI50,SF-268 CNS,15.9 µM
same,TGI,SF-268 CNS,56.2 µM
same,GI50,SF-295 CNS,13.5 µM
same,TGI,SF-295 CNS,30.8 µM
same,GI50,SF-539 CNS,17.5 µM
same,TGI,SF-539 CNS,45.1 µM
same,GI50,SK-MEL-2 melanoma,33.7 µM
same,TGI,SK-MEL-2 melanoma,53.6 µM
same,GI50,SK-MEL-28 melanoma,22.2 µM
same,TGI,SK-MEL-28 melanoma,80 µM
same,GI50,SK-MEL-5 melanoma,13.6 µM
same,TGI,SK-MEL-5 melanoma,28.1 µM
same,GI50,SK-OV-3 ovarian,24.8 µM
same,TGI,SK-OV-3 ovarian,58.7 µM
same,GI50,SN12C renal,17.4 µM
same,TGI,SN12C renal,45.8 µM
same,GI50,SNB-19 CNS,14.9 µM
same,TGI,SNB-19 CNS,35.4 µM
same,GI50,SNB-75 CNS,22.3 µM
same,TGI,SNB-75 CNS,58.1 µM
same,GI50,SR leukemia,3.77 µM
same,TGI,SR leukemia,14.1 µM
same,GI50,SW-620 colon,15.4 µM
same,TGI,SW-620 colon,63.2 µM
same,GI50,T-47D breast,11.6 µM
same,TGI,T-47D breast,29.5 µM
same,GI50,TK-10 renal,23.3 µM
same,TGI,TK-10 renal,> 100 µM
same,GI50,U251 glioblastoma,12.3 µM
same,TGI,U251 glioblastoma,26.7 µM
same,GI50,UACC-257 melanoma,16.2 µM
same,TGI,UACC-257 melanoma,35.1 µM
same,GI50,UACC-62 melanoma,25.2 µM
same,TGI,UACC-62 melanoma,75.1 µM
same,GI50,UO-31 renal,16.9 µM
same,TGI,UO-31 renal,44.5 µM
